Source: a compilation of properties of binary mixtures (doi:10.1039/b303735e)

Assay: xn = mol fraction of the nth substance listed
Conditions: 298.15 K, 101.3 kPa

CCCC[n+]1ccn(C)c1.F[B-](F)(F)F + CC#N
Conditions	viscosity [mPa·s]
x2 = 0	110
x2 = 0.0982	70.9
x2 = 0.2265	40.3
x2 = 0.3047	27.7
x2 = 0.4554	13.2
x2 = 0.5059	10.22
x2 = 0.5469	8.25
x2 = 0.6005	6.07
x2 = 0.6441	4.58
x2 = 0.6973	3.34
x2 = 0.9513	0.593

CCCC[n+]1ccn(C)c1.F[B-](F)(F)F + CCC(C)=O
Conditions	viscosity [mPa·s]
x2 = 0	110

CC#N + CCCC[n+]1ccn(C)c1.F[B-](F)(F)F
Conditions	viscosity [mPa·s]
x1 = 1	0.341

CCC(C)=O + CCCC[n+]1ccn(C)c1.F[B-](F)(F)F
Conditions	viscosity [mPa·s]
x1 = 0.2004	42.2
x1 = 0.3969	15.2
x1 = 0.4495	11.97
x1 = 0.5	9.32
x1 = 0.5521	7.13
x1 = 0.6062	5.38
x1 = 0.6545	4.1
x1 = 0.8137	1.55
x1 = 0.8974	0.847
x1 = 0.9502	0.564
x1 = 1	0.373

ClCCl + CCCC[n+]1ccn(C)c1.F[B-](F)(F)F
Conditions	viscosity [mPa·s]
x1 = 0.199	37.2
x1 = 0.2854	26.3
x1 = 0.3985	17
x1 = 0.5452	10.05
x1 = 0.5958	7.69
x1 = 0.6471	5.92
x1 = 0.6958	4.6
x1 = 0.8019	2.59
x1 = 0.9015	1.12
x1 = 0.9477	0.715
x1 = 1	0.401

CCCC[n+]1ccn(C)c1.F[B-](F)(F)F + CN(C)C=O
Conditions	viscosity [mPa·s]
x2 = 0	110
x2 = 0.2041	52.2
x2 = 0.3024	32.9
x2 = 0.4061	20.8
x2 = 0.4408	17.6
x2 = 0.5052	12.7
x2 = 0.5459	11
x2 = 0.6014	7.8
x2 = 0.665	6.4
x2 = 0.701	5.04
x2 = 0.8008	2.91
x2 = 0.9005	1.6
x2 = 0.947	1.19

CCCC[n+]1ccn(C)c1.F[B-](F)(F)F + ClCCl
Conditions	viscosity [mPa·s]
x2 = 0	110
